The target of this experiment is Muscarinic acetylcholine receptor M2 (Homo sapiens) (UniProt P08172). Put plainly: potentiation of ACh response at hM2 – CHO cells, Gqi5 chimera, calcium mobilization, selectivity assay for M4 PAM optimization, SAR follow-up (AID 623925). The settings on record: ACh EC20 potentiation; for % ACh max response: at 30 µM (top of the series).

Active and inactive are the calls of the source.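 How the source made its calls: active means compounds whose calcium response changes with concentration, giving a dose-dependent curve as judged by the depositor; inactive means the rest, with no dose-dependent response.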

Chain of Muscarinic acetylcholine receptor M2 (Homo sapiens) (P08172 whole entry, looked up): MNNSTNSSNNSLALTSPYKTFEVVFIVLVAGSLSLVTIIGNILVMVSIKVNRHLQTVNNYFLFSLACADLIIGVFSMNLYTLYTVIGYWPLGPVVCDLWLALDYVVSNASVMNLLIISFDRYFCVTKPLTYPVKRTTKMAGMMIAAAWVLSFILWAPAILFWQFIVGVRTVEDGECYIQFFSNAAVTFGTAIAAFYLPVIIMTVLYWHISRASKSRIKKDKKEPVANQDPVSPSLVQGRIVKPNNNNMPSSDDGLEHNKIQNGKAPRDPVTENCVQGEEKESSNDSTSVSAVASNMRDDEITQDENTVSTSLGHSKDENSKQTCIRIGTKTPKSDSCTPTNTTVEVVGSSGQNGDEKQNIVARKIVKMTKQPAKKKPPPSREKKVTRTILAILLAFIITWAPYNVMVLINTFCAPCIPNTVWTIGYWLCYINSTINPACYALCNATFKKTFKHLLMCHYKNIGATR

With `Cc1nc2sc(C(=O)NCc3cccnc3)c(N)c2c(C)c1Cl`, the outcome was inactive.

Regarding `Cc1nc2sc(C(=O)NCc3ccncn3)c(N)c2c(C)c1Cl`, the “% ACh max response” value is “inactive”.

Turning to `Cc1nc2sc(C(=O)NC3CC3)c(N)c2c(C)c1Cl`, the EC50 was 548 nM.

Turning to `COc1ccc(C)c2sc(NC(=O)c3ccncc3)nc12`, the “% ACh max response” value is “inactive”.

As to `Cc1nc2sc(C(=O)NCc3nccs3)c(N)c2c(C)c1Cl`, the “% ACh max response” value is “inactive”.

In the case of `Cc1nc2sc(C(=O)NCc3ccncc3)c(N)c2c(C)c1Cl`, the result was inactive.

Regarding `Cc1nc2sc(C(=O)NCc3ccccc3)c(N)c2c(C)c1Cl`, the result was inactive.

Regarding `Cc1nc2sc(C(=O)NCCc3ccncc3)c(N)c2c(C)c1Cl`, the “% ACh max response” value is “inactive”.

As to `Cc1nc2sc(C(=O)NCc3cccc(F)c3F)c(N)c2c(C)c1Cl`, the “% ACh max response” value is “inactive”.

As for `Cc1nc2sc(C(=O)NCc3ccc4c(c3)OCO4)c(N)c2c(C)c1Cl`, the result was inactive.

Source of the values: PubChem BioAssay AID623925 (Vanderbilt Specialized Chemistry Center, 2012).
